In the supplement of paper PMC10307832 one finds relative viability data, which are given here for seven cell lines.

Common to all, as to experiment: relative viability (nuclei count vs DMSO), 5 days (fraction); higher = more cells survive
Compound in the assay “Tosedostat + Navitoclax”: CC(C)C[C@@H](C(=O)N[C@H](C(=O)OC1CCCC1)c1ccccc1)[C@H](O)C(=O)NO [Tosedostat] + CC1(C)CCC(c2ccc(Cl)cc2)=C(CN2CCN(c3ccc(C(=O)NS(=O)(=O)c4ccc(N[C@H](CCN5CCOCC5)CSc5ccccc5)c(S(=O)(=O)C(F)(F)F)c4)cc3)CC2)C1 [Navitoclax] (partner 0.5 µM)
In a few lines:
(§1)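 Relative viability divides the nuclei count in treated wells by that in vehicle wells. Lung cancer cell lines were seeded in 1536-well plates, dosed by pin tool the next day, and fixed and stained after 5 days in one step with final 0.05% Triton X-100, 1% formaldehyde and 1 ug/ml Hoechst. Dosing was a single drug or a fixed anchor-drug dose plus five library-drug doses (not always all listed) in √10 steps, and values are medians of duplicate plates imaged at 4×.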

Compound in the assay “Tosedostat + Trametinib”: CC(C)C[C@@H](C(=O)N[C@H](C(=O)OC1CCCC1)c1ccccc1)[C@H](O)C(=O)NO [Tosedostat] + CC(=O)Nc1cccc(-n2c(=O)n(C3CC3)c(=O)c3c(Nc4ccc(I)cc4F)n(C)c(=O)c(C)c32)c1 [Trametinib] (partner 0.02 µM)
The gist of the method: as §1

Compound in the assay “Tosedostat + Palbociclib”: CC(C)C[C@@H](C(=O)N[C@H](C(=O)OC1CCCC1)c1ccccc1)[C@H](O)C(=O)NO [Tosedostat] + CC(=O)c1c(C)c2cnc(Nc3ccc(N4CCNCC4)cn3)nc2n(C2CCCC2)c1=O [Palbociclib] (partner 0.5 µM)
The gist of the method:
as §1

Compound in the assay “Tosedostat + Linsitinib”: CC(C)C[C@@H](C(=O)N[C@H](C(=O)OC1CCCC1)c1ccccc1)[C@H](O)C(=O)NO [Tosedostat] + C[C@]1(O)C[C@@H](c2nc(-c3ccc4ccc(-c5ccccc5)nc4c3)c3c(N)nccn32)C1 [Linsitinib] (partner 1 µM)
In a few lines: as §1

In the case of NCI-H2085, the relative viability with Tosedostat + Navitoclax (first compound 0.02 µM) came out at 1.04; with Tosedostat + Navitoclax (first compound 0.06325 µM), 1.06; with Tosedostat + Navitoclax (first compound 0.2 µM) it was 1.09; with Tosedostat + Navitoclax (first compound 0.6325 µM), 1.05; in the assay with Tosedostat + Navitoclax (first compound 2 µM), 1.08; in the assay with Tosedostat + Trametinib (first compound 0.06325 µM) it was 0.436. Further, the relative viability with Tosedostat + Trametinib (first compound 0.2 µM) came out at 0.677; with Tosedostat + Trametinib (first compound 0.6325 µM), 0.403; in the assay with Tosedostat + Trametinib (first compound 2 µM), 0.637; with Tosedostat + Palbociclib (first compound 0.06325 µM), 0.498; with Tosedostat + Palbociclib (first compound 0.2 µM), 0.474; with Tosedostat + Palbociclib (first compound 0.6325 µM) it was 0.512. The relative viability in the assay with Tosedostat + Palbociclib (first compound 2 µM) came out at 0.561; with Tosedostat + Linsitinib (first compound 0.02 µM), 0.935; with Tosedostat + Linsitinib (first compound 0.06325 µM), 0.889; with Tosedostat + Linsitinib (first compound 0.2 µM), 0.724; in the assay with Tosedostat + Linsitinib (first compound 0.6325 µM) it was 0.838; with Tosedostat + Linsitinib (first compound 2 µM), 0.836.

NCI-H2087: the relative viability in the assay with Tosedostat + Navitoclax (first compound 0.02 µM) turned out to be 0.995; with Tosedostat + Navitoclax (first compound 0.06325 µM), 0.916; with Tosedostat + Navitoclax (first compound 0.2 µM), 1; in the assay with Tosedostat + Navitoclax (first compound 0.6325 µM), 0.931; with Tosedostat + Navitoclax (first compound 2 µM), 0.805; with Tosedostat + Trametinib (first compound 0.02 µM), 0.181. Moreover, the relative viability with Tosedostat + Trametinib (first compound 0.06325 µM) is 0.17; in the assay with Tosedostat + Trametinib (first compound 0.2 µM) it was 0.172; in the assay with Tosedostat + Trametinib (first compound 0.6325 µM), 0.228; with Tosedostat + Trametinib (first compound 2 µM), 0.132; with Tosedostat + Palbociclib (first compound 0.02 µM), 0.247; in the assay with Tosedostat + Palbociclib (first compound 0.06325 µM) it was 0.288. Also, the relative viability worked out at 0.233 with Tosedostat + Palbociclib (first compound 0.2 µM); 0.207 with Tosedostat + Palbociclib (first compound 0.6325 µM); 0.22 with Tosedostat + Palbociclib (first compound 2 µM); 1 with Tosedostat + Linsitinib (first compound 0.02 µM); 0.969 with Tosedostat + Linsitinib (first compound 0.06325 µM); 0.951 with Tosedostat + Linsitinib (first compound 0.2 µM). Further, the relative viability with Tosedostat + Linsitinib (first compound 0.6325 µM) is 1; with Tosedostat + Linsitinib (first compound 2 µM), 0.886.

NCI-H2126: the relative viability with Tosedostat + Navitoclax (first compound 0.02 µM) stood at 0.801; in the assay with Tosedostat + Navitoclax (first compound 0.06325 µM) it was 0.876; with Tosedostat + Navitoclax (first compound 0.2 µM), 0.894; in the assay with Tosedostat + Navitoclax (first compound 0.6325 µM), 0.852; with Tosedostat + Navitoclax (first compound 2 µM) it was 0.721; with Tosedostat + Trametinib (first compound 0.02 µM), 0.493. Further, the relative viability with Tosedostat + Trametinib (first compound 0.06325 µM) turned out to be 0.59; in the assay with Tosedostat + Trametinib (first compound 0.2 µM), 0.568; with Tosedostat + Trametinib (first compound 0.6325 µM) it was 0.584; with Tosedostat + Trametinib (first compound 2 µM), 0.481; in the assay with Tosedostat + Palbociclib (first compound 0.02 µM), 0.328; with Tosedostat + Palbociclib (first compound 0.06325 µM) it was 0.352. The relative viability turned out to be 0.352 with Tosedostat + Palbociclib (first compound 0.2 µM); 0.352 with Tosedostat + Palbociclib (first compound 0.6325 µM); 0.352 in the assay with Tosedostat + Palbociclib (first compound 2 µM); 0.586 with Tosedostat + Linsitinib (first compound 0.02 µM); 0.682 in the assay with Tosedostat + Linsitinib (first compound 0.06325 µM); 0.778 with Tosedostat + Linsitinib (first compound 0.2 µM). Further, the relative viability stood at 0.677 with Tosedostat + Linsitinib (first compound 0.6325 µM) and 0.623 with Tosedostat + Linsitinib (first compound 2 µM).

With NCI-H2228, the relative viability was 1 with Tosedostat + Navitoclax (first compound 0.02 µM); 0.856 with Tosedostat + Navitoclax (first compound 0.06325 µM); 0.781 with Tosedostat + Navitoclax (first compound 0.2 µM); 0.961 in the assay with Tosedostat + Navitoclax (first compound 0.6325 µM); 0.793 in the assay with Tosedostat + Navitoclax (first compound 2 µM); 0.666 with Tosedostat + Trametinib (first compound 0.02 µM). Also, the relative viability with Tosedostat + Trametinib (first compound 0.06325 µM) turned out to be 0.57; with Tosedostat + Trametinib (first compound 0.2 µM) it was 0.466; in the assay with Tosedostat + Trametinib (first compound 0.6325 µM), 0.534; with Tosedostat + Trametinib (first compound 2 µM), 0.421; with Tosedostat + Palbociclib (first compound 0.02 µM), 1; with Tosedostat + Palbociclib (first compound 0.06325 µM) it was 0.865. In addition, the relative viability in the assay with Tosedostat + Palbociclib (first compound 0.2 µM) amounted to 0.821; with Tosedostat + Palbociclib (first compound 0.6325 µM), 0.473; with Tosedostat + Palbociclib (first compound 2 µM), 0.426; with Tosedostat + Linsitinib (first compound 0.02 µM), 0.792; in the assay with Tosedostat + Linsitinib (first compound 0.06325 µM), 0.63; in the assay with Tosedostat + Linsitinib (first compound 0.2 µM) it was 0.686. Also, the relative viability with Tosedostat + Linsitinib (first compound 0.6325 µM) worked out at 0.612; in the assay with Tosedostat + Linsitinib (first compound 2 µM) it was 0.525.

Take NCI-H2347: the relative viability in the assay with Tosedostat + Navitoclax (first compound 0.02 µM) turned out to be 0.671; with Tosedostat + Navitoclax (first compound 0.06325 µM) it was 0.8; with Tosedostat + Navitoclax (first compound 0.2 µM) it was 0.766; with Tosedostat + Navitoclax (first compound 0.6325 µM), 0.688; in the assay with Tosedostat + Navitoclax (first compound 2 µM), 0.68; with Tosedostat + Trametinib (first compound 0.02 µM), 0.297. The relative viability with Tosedostat + Trametinib (first compound 0.06325 µM) is 0.295; with Tosedostat + Trametinib (first compound 0.2 µM), 0.33; with Tosedostat + Trametinib (first compound 0.6325 µM), 0.262; in the assay with Tosedostat + Trametinib (first compound 2 µM) it was 0.321; with Tosedostat + Palbociclib (first compound 0.02 µM) it was 0.411; with Tosedostat + Palbociclib (first compound 0.06325 µM) it was 0.451. The relative viability in the assay with Tosedostat + Palbociclib (first compound 0.2 µM) amounted to 0.407; in the assay with Tosedostat + Palbociclib (first compound 0.6325 µM), 0.494; with Tosedostat + Palbociclib (first compound 2 µM), 0.4; with Tosedostat + Linsitinib (first compound 0.02 µM), 0.989; with Tosedostat + Linsitinib (first compound 0.06325 µM) it was 0.967; with Tosedostat + Linsitinib (first compound 0.2 µM), 0.992. Also, the values for the relative viability with Tosedostat + Linsitinib (first compound 0.6325 µM) and with Tosedostat + Linsitinib (first compound 2 µM) were 0.949 and 0.975, respectively.

As for NCI-H2405, the relative viability in the assay with Tosedostat + Navitoclax (first compound 0.02 µM) stood at 1.18; in the assay with Tosedostat + Navitoclax (first compound 0.06325 µM), 0.846; with Tosedostat + Navitoclax (first compound 0.2 µM), 0.82; in the assay with Tosedostat + Navitoclax (first compound 0.6325 µM), 0.812; with Tosedostat + Navitoclax (first compound 2 µM), 0.611; in the assay with Tosedostat + Trametinib (first compound 0.02 µM), 0.652. Moreover, the relative viability with Tosedostat + Trametinib (first compound 0.06325 µM) is 0.657; with Tosedostat + Trametinib (first compound 0.2 µM), 0.79; with Tosedostat + Trametinib (first compound 0.6325 µM) it was 0.699; in the assay with Tosedostat + Trametinib (first compound 2 µM), 0.614; in the assay with Tosedostat + Palbociclib (first compound 0.02 µM), 0.576; with Tosedostat + Palbociclib (first compound 0.06325 µM), 0.559. The relative viability with Tosedostat + Palbociclib (first compound 0.2 µM) amounted to 0.548; with Tosedostat + Palbociclib (first compound 0.6325 µM), 0.484; in the assay with Tosedostat + Palbociclib (first compound 2 µM), 0.466; with Tosedostat + Linsitinib (first compound 0.02 µM) it was 0.883; with Tosedostat + Linsitinib (first compound 0.06325 µM), 0.963; with Tosedostat + Linsitinib (first compound 0.2 µM), 0.925. Moreover, the relative viability worked out at 0.965 with Tosedostat + Linsitinib (first compound 0.6325 µM) and 0.862 with Tosedostat + Linsitinib (first compound 2 µM).

In the case of NCI-H3122, the relative viability with Tosedostat + Navitoclax (first compound 0.02 µM) came out at 1.05; with Tosedostat + Navitoclax (first compound 0.06325 µM) it was 1.05; with Tosedostat + Navitoclax (first compound 0.2 µM), 0.996; with Tosedostat + Navitoclax (first compound 0.6325 µM), 1.05; in the assay with Tosedostat + Navitoclax (first compound 2 µM), 1.03; with Tosedostat + Trametinib (first compound 0.02 µM) it was 0.201. The relative viability in the assay with Tosedostat + Trametinib (first compound 0.06325 µM) came out at 0.258; with Tosedostat + Trametinib (first compound 0.2 µM), 0.193; in the assay with Tosedostat + Trametinib (first compound 0.6325 µM), 0.25; with Tosedostat + Trametinib (first compound 2 µM), 0.183; with Tosedostat + Palbociclib (first compound 0.02 µM), 0.195; in the assay with Tosedostat + Palbociclib (first compound 0.06325 µM), 0.211. Also, the relative viability with Tosedostat + Palbociclib (first compound 0.2 µM) stood at 0.216; in the assay with Tosedostat + Palbociclib (first compound 0.6325 µM) it was 0.22; with Tosedostat + Palbociclib (first compound 2 µM), 0.249; with Tosedostat + Linsitinib (first compound 0.02 µM) it was 0.993; with Tosedostat + Linsitinib (first compound 0.06325 µM) it was 1; in the assay with Tosedostat + Linsitinib (first compound 0.2 µM) it was 1.01. The relative viability in the assay with Tosedostat + Linsitinib (first compound 0.6325 µM) was 1.02; with Tosedostat + Linsitinib (first compound 2 µM) it was 1.04.
